This is an account of results in ChEMBL document CHEMBL1201862, “PubChem BioAssay data set” (2004).

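Exposure lasted 48 hours, with cells grown in 96-well plates and compounds tested at five concentrations. GI50 marks 50% less growth.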 Calls of active or inactive are those of the source. No stated cut-off is given here; in the data, active = GI50 up to about 1.1 µM and inactive = higher.

Among the test systems are 786-0; A498; A549; HCC 2998; HCT-116; HCT-15; MOLT-4; NCI-H226; NCI-H23; NCI-H460; OVCAR-3; OVCAR-8; RXF 393; SK-MEL-28; SK-OV-3; TK-10; UO-31; EKVX; HOP-92.
What all share (experiment): NCI tumour cell line growth inhibition, 48 h

For the molecule `CC(=O)Nc1ccc(-c2nnc(SCC(=O)Nc3ccc(Cl)cc3Cl)o2)cc1`, the GI50 with 786-0 is 16.1 µM (inactive); with A498, 40.8 µM (inactive); in the test on A549, > 100 µM (inactive); in the test on HCC 2998, > 100 µM (inactive); with HCT-116 it was 40.5 µM (inactive); with HCT-15, 38.5 µM. Moreover, the GI50 is 40.8 µM (inactive) with MOLT-4; 29.2 µM (inactive) in the test with NCI-H226; 26.2 µM (inactive) with NCI-H23; 32.9 µM (inactive) with NCI-H460; 18.6 µM (inactive) in the test on OVCAR-3; 38.2 µM (inactive) in the test on OVCAR-8. Further, the GI50 is 33.7 µM (inactive) in the test on RXF 393; > 100 µM (inactive) in the test on SK-MEL-28; 64.3 µM (inactive) in the test on SK-OV-3; 96.8 µM (inactive) in the test on TK-10; 94.8 µM (inactive) with UO-31.
Regarding `COC(=O)c1ccc(C(=O)NC(Cc2ccc(Oc3cc(CC(NC(=O)c4ccccc4C(=O)OC)C(=O)OC)ccc3OC)cc2)C(=O)OC)cc1` (stereo unspecified), the GI50 was > 100 µM (inactive) in the test on 786-0; 72.6 µM (inactive) in the test on A498; > 100 µM (inactive) in the test with A549; > 100 µM (inactive) with EKVX; > 100 µM (inactive) in the test on HCC 2998; > 100 µM (inactive) in the test on HCT-116. In addition, the GI50 is greater than 100 µM in the test on HCT-15; > 100 µM (inactive) with HOP-92; > 100 µM (inactive) in the test on MOLT-4; > 100 µM (inactive) in the test with NCI-H226; > 100 µM (inactive) with NCI-H23; > 100 µM (inactive) with NCI-H460. Besides, the GI50 is > 100 µM (inactive) in the test with OVCAR-3; 86.3 µM (inactive) with OVCAR-8; > 100 µM (inactive) in the test on SK-MEL-28; 67 µM (inactive) in the test with SK-OV-3; > 100 µM (inactive) in the test on TK-10; > 100 µM (inactive) in the test with UO-31.
Regarding `COC(=O)/C(=C/CC(N=C(c1ccccc1)c1ccccc1)C(=O)OC)N=C(c1ccccc1)c1ccccc1` (stereo unspecified), the GI50 in the test on 786-0 is > 100 µM (inactive); in the test on A549 it was > 100 µM (inactive); in the test on EKVX it was > 100 µM (inactive); with HCC 2998, > 100 µM (inactive); in the test on HCT-116, > 100 µM (inactive); in the test with HCT-15, greater than 100 µM. The GI50 in the test on MOLT-4 was > 100 µM (inactive); in the test on NCI-H23, > 100 µM (inactive); with NCI-H460, > 100 µM (inactive); in the test on OVCAR-3, > 100 µM (inactive); with OVCAR-8, > 100 µM (inactive); with RXF 393, 26.1 µM (inactive). Further, the GI50 was > 100 µM (inactive) in the test on SK-MEL-28, 39 µM (inactive) in the test on SK-OV-3, > 100 µM (inactive) with TK-10 and 45.9 µM (inactive) in the test on UO-31.
As for `CCOC(=O)c1cc(/C=C/C(C)=C/C(=O)OC)oc1-c1ccccc1`, the GI50 was > 100 µM (inactive) in the test with 786-0; > 100 µM (inactive) with A498; 49.8 µM (inactive) with A549; > 100 µM (inactive) in the test with EKVX; > 100 µM (inactive) with HCC 2998; 32.1 µM (inactive) in the test with HCT-116. Besides, the GI50 in the test with HCT-15 was 58.9 µM; with MOLT-4 it was 38.6 µM (inactive); with NCI-H226, > 100 µM (inactive); with NCI-H23, 61.8 µM (inactive); with NCI-H460, 65.3 µM (inactive); in the test on OVCAR-3, 73.5 µM (inactive). In addition, the GI50 in the test with OVCAR-8 was 92.7 µM (inactive); with SK-OV-3, > 100 µM (inactive); in the test on TK-10, > 100 µM (inactive); with UO-31, 35.4 µM (inactive).
As to `CC1(C)CCC[C@@]2(C)C1CC[C@H]1CC(O)C3(C)CCC12C3` (stereo partly specified), the GI50 in the test with 786-0 is 17.5 µM (inactive); in the test with A549, 18.7 µM (inactive); in the test with HCC 2998, 19.8 µM (inactive); in the test on HCT-116, 17.3 µM (inactive); in the test on HCT-15 it was 18.2 µM; in the test on HOP-92 it was 15.6 µM (inactive). The GI50 is 22 µM (inactive) in the test on MOLT-4; 20 µM (inactive) in the test with NCI-H226; 18.7 µM (inactive) with NCI-H23; 18.5 µM (inactive) with NCI-H460; 16.7 µM (inactive) in the test on OVCAR-3; 18.5 µM (inactive) in the test with OVCAR-8. The GI50 is 13.3 µM (inactive) in the test with RXF 393; 18.4 µM (inactive) in the test with SK-MEL-28; 18.3 µM (inactive) with SK-OV-3; 14.4 µM (inactive) in the test with TK-10; 17.5 µM (inactive) in the test with UO-31.
For `CCOc1ccc(NC(=O)CC2Sc3ccccc3NC2=O)cc1` (stereo unspecified), the GI50 with 786-0 is 19.2 µM (inactive); with A498, > 100 µM (inactive); in the test with A549, > 100 µM (inactive); in the test with EKVX, > 100 µM (inactive); in the test on HCC 2998 it was 38.2 µM (inactive); in the test with HCT-116, 25.2 µM (inactive). Also, the GI50 was 56.8 µM in the test on HCT-15; > 100 µM (inactive) in the test on MOLT-4; > 100 µM (inactive) in the test on NCI-H226; > 100 µM (inactive) in the test with NCI-H23; 90.2 µM (inactive) with NCI-H460; 42.3 µM (inactive) in the test on OVCAR-3. For the same molecule, the GI50 with OVCAR-8 was 21.1 µM (inactive); with SK-MEL-28, > 100 µM (inactive); in the test on SK-OV-3, 41.3 µM (inactive); in the test on TK-10, 60.5 µM (inactive); in the test on UO-31, 47.2 µM (inactive).
As to `O=c1[nH]ccc2c1ccn2C1CC(O)C(CO)O1` (stereo unspecified), the GI50 in the test on 786-0, with A498, in the test with A549, with EKVX, with HCC 2998 and in the test with HCT-116 was > 100 µM (inactive) in each case. Moreover, the GI50 in the test on HCT-15 is greater than 100 µM; in the test on HOP-92, > 100 µM (inactive); with MOLT-4, > 100 µM (inactive); with NCI-H226, > 100 µM (inactive); in the test on NCI-H23, > 100 µM (inactive); in the test on NCI-H460, > 100 µM (inactive). For the same molecule, the GI50 in the test on OVCAR-3, with OVCAR-8, in the test on SK-MEL-28, in the test with SK-OV-3, in the test with TK-10 and in the test on UO-31 was > 100 µM (inactive) each time.
As to `COc1ccc(/C(=N/NC(N)=O)C(c2ccc(OC)cc2)C2C(=O)Oc3ccccc32)cc1` (stereo unspecified), the GI50 in the test with 786-0 was > 100 µM (inactive); in the test on A549, > 100 µM (inactive); in the test on HCC 2998, > 100 µM (inactive); in the test on HCT-116, > 100 µM (inactive); in the test with HCT-15, greater than 100 µM; with HOP-92, 75 µM (inactive). Moreover, the GI50 with MOLT-4, in the test on NCI-H226, in the test on NCI-H23, in the test with NCI-H460, with OVCAR-3 and in the test on OVCAR-8 was > 100 µM (inactive) throughout. Besides, the GI50 with RXF 393 is 86.1 µM (inactive); in the test with SK-MEL-28, > 100 µM (inactive); in the test on SK-OV-3 it was > 100 µM (inactive); with UO-31 it was 35 µM (inactive).
As to `Cc1ccc2[nH]c3c(C)c4c(c(C)c3c2c1)CN(C)C=C4`, the GI50 in the test on 786-0 is 0.325 µM (active); with A549, 0.37 µM (active); in the test on EKVX, 1.17 µM (inactive); in the test on HCC 2998, 1.52 µM (inactive); in the test with HCT-116 it was 2.32 µM (inactive); with HCT-15, 13.8 µM. In addition, the GI50 is 1.07 µM (active) with HOP-92; 1.91 µM (inactive) with MOLT-4; 0.353 µM (active) with NCI-H226; 0.735 µM (active) in the test on NCI-H23; 2.74 µM (inactive) in the test with NCI-H460; 2.75 µM (inactive) with OVCAR-3. Moreover, the GI50 with OVCAR-8 is 0.444 µM (active); in the test on RXF 393, 1.53 µM (inactive); with SK-MEL-28, 1.98 µM (inactive); in the test on SK-OV-3 it was 0.33 µM (active); with TK-10, 9.29 µM (inactive); in the test on UO-31, 3.52 µM (inactive).
For the molecule `CSc1nc(NC2OC(COC(C)=O)C(OC(C)=O)C(OC(C)=O)C2OC(C)=O)c2c(n1)OCC2=O` (stereo unspecified), the GI50 with 786-0 is > 100 µM (inactive); in the test with A498, > 100 µM (inactive); in the test on A549, > 100 µM (inactive); in the test with HCT-116 it was > 100 µM (inactive); in the test with HCT-15 it was greater than 100 µM; with HOP-92 it was > 100 µM (inactive). For the same molecule, the GI50 in the test with MOLT-4, in the test on NCI-H226, in the test with NCI-H23, in the test with NCI-H460, in the test with OVCAR-3 and with OVCAR-8 was > 100 µM (inactive) throughout. Moreover, the GI50 in the test with SK-MEL-28, in the test on SK-OV-3, in the test with TK-10 and in the test on UO-31 was > 100 µM (inactive) throughout.
Turning to `OC1(C23CC4CC(CC(C4)C2)C3)CSCC1(O)C12CC3CC(CC(C3)C1)C2` (stereo unspecified), the GI50 with 786-0, in the test on A549, in the test on EKVX, with HCC 2998, with HCT-116 and in the test on HOP-92 was > 100 µM (inactive) in each case. The GI50 is > 10 µM (inactive) in the test with MOLT-4; > 100 µM (inactive) in the test on NCI-H226; > 100 µM (inactive) with NCI-H23; > 100 µM (inactive) in the test on OVCAR-3; > 100 µM (inactive) with OVCAR-8; > 100 µM (inactive) in the test with SK-MEL-28. Moreover, the GI50 in the test on SK-OV-3, in the test with TK-10 and in the test with UO-31 was > 100 µM (inactive) throughout.
Regarding `Cn1nc2ccccc2cc1=O`, the GI50 with 786-0, with A498, with A549, with EKVX, in the test on HCC 2998 and in the test on HCT-116 was > 100 µM (inactive) throughout. Moreover, the GI50 was greater than 100 µM in the test with HCT-15; > 100 µM (inactive) in the test with HOP-92; > 100 µM (inactive) in the test with NCI-H226; > 100 µM (inactive) in the test on NCI-H23; > 100 µM (inactive) in the test with NCI-H460; > 100 µM (inactive) with OVCAR-3. Further, the GI50 with OVCAR-8, in the test with SK-MEL-28, with SK-OV-3, with TK-10 and with UO-31 was > 100 µM (inactive) in each case.
